How the values were obtained:
[1] = system: human periodontal ligament cells (hPDLCs); design: dose or concentration left out as unconfirmed; settings: exposed for 24 and 48 hours; cited from earlier work
[2] = system: human gingival fibroblasts (HGFs); design: dose or concentration left out as unconfirmed; settings: exposed for 24 and 48 hours; cited from earlier work
[3] = system: Enterococcus faecalis ATCC 7080; test: Biofilm formation in 96 well plate, crystal violet assay; assay type: cell-based; settings: for reduction of biofilm formation versus control: 24 hours, 37° C., FIG. 1 B
Protocol: (§1) FIG. 1: The effect of varying concentrations of DHA on the ability of Klebsiella pneumoniae NCIMB 418 (A) and Enterococcus faecalis ATCC 7080 (B) to form a biofilm in vitro. (10^6 CFU/well was incubated with various concentrations of DHA in a 96 well plate for 24 hours statically at 37° C. Biofilm formation was assessed using the crystal violet assay. Data represents the mean±SD for six independent experiments, carried out in triplicate. One-way ANOVA was performed for statistical analysis. *****P<0.001 compared to both the control (no DHA) and vehicle control (1% DMSO).
(§2) The effect of varying concentrations of DHA on the ability of Klebsiella pneumoniae NCIMB 418 and Enterococcus faecalis ATCC 7080 to form a biofilm in vitro was investigated. 10^6 CFU/well was incubated with various concentrations of DHA in a 96 well plate for 24 hours statically at 37° C. Biofilm formation was assessed using the crystal violet assay. Data represents the mean±SD for six independent experiments, carried out in triplicate. The assay involved seeding cells at 10^6 CFU/ml in media with DHA. Cells were then left for 24 hrs to form biofilms before washing and staining with Crystal Violet. Crystal violet adhered to cells stuck to the sides of the tube/well. The samples were washed again to remove any unbound dye before dissolving the stain in acetic acid and the reading was measured in a spectrophotometer. The colour intensity relates to the level of biofilm present. The more colour the more bacteria in the biofilm (Merrit, J. H, et al., (2005) “Growing and Analysing Static Biofilms”, Current Protocols in Microbiology, Chapter 1(July), p. Unit 1B.1.).

[4] = system: Klebsiella pneumoniae NCIMB 418; test: as above; assay type: cell-based; settings: for reduction of biofilm formation versus control: 24 hours, 37° C., FIG. 1 A
Protocol: as §1, §2

[5] = summary statement on FIG. 1, concentration not stated

SMILES: CC/C=C\C/C=C\C/C=C\C/C=C\C/C=C\C/C=C\CCC(=O)O [DHA, docosahexaenoic acid]
- cytotoxic effects [1]: exhibited cytotoxic effects
- cytotoxic effects [2]: exhibited cytotoxic effects
- reduction of biofilm formation versus control ([3]; DHA 6.25 μM): ~20%
- reduction of biofilm formation versus control ([3]; DHA 100 μM): ~65%
- reducing biofilm formation [3, 5]: approximately 60%
- reduction of biofilm formation versus control ([4]; DHA 6.25 μM): ~40%
- reduction of biofilm formation versus control ([4]; DHA 100 μM): ~65%
- reducing biofilm formation [4, 5]: approximately 60%

Reference: US20230413814A1, “A METHOD FOR REMOVING A BIOFILM” (TECHNOLOGICAL UNIVERSITY DUBLIN, priority 2020, published 2023)
